Experimental data published in patent publication US20120208750A1, “USE OF PROTEIN KINASE C DELTA (PKCD) INHIBITORS TO TREAT DIABETES, OBESITY, AND HEPATIC STEATOSIS” (JOSLIN DIABETES CENTER, INC., priority 2009, published 2012).

B1: leptin: recombinant mouse leptin delivered by osmotic pump (protein, UniProt P41160 22-167, looked up)
Leptin: VPIQKVQDDTKTLIKTIVTRINDISHTQSVSAKQRVTGLDFIPGLHPILSLSKMDQTLAVYQQVLTSLPSQNVLQIANDLENLRDLLHLLAFSKSCSLPQTSGLQKPESLDGVLEASLYSTEVVALSRLQGSLQDILQQLDVSPEC

How the values were obtained:
Assay type in all cases: in vivo, mouse
PKCd [1] = assay: PKCd mRNA expression in streptozotocin diabetic mice and insulin- or phlorizin-rescued mice (qPCR); conditions: STZ diabetic mice; rescue with s.c. insulin pellets or phlorizin 0.4 g/kg s.c. twice daily 10 days, FIG. 2F-G
Procedure: (§1) Expression of PKCd mRNA and protein was assayed in livers mice of various genotypes and under various conditions of diet. For all mRNA studies samples were prepared using RNeasy extraction kit according to the manufacturer protocol (QIAGEN), mRNA was measured by quantitative real-time PCR (qPRC), and results were normalized to TBP. For western blot analysis, 40-50 ug of each extract was loaded per lane. Each lane represents an individual animal. On a normal chow diet at 24 weeks of age, B6 mice have ˜60% higher levels of PKCd mRNA in liver than 129 mice (1.11±0.11 vs. 0.71±0.04, p<0.02) (FIG. 1A). […] These differences in PKCd messenger expression lead to similar differences in expression at the protein level when assessed by Western blot analysis of liver extracts (FIG. 1B). This difference in PKCd expression between B6 and 129 mice was also observed at 6 weeks of age (FIG. 1C), when 129 mice actually weigh slightly more than the B6 (22.1±0.5 vs. 19.8±0.3 g, p<0.001) and have identical glucose and insulin levels.
Streptozotocin treatment was performed as follows. Mice at 6 weeks of age received either daily i.p. injections of sodium citrate (pH 4.3) for controls or STZ (Sigma) resuspended in sodium citrate, 100 μg per g of body weight for three consecutive days. When these mice achieved fed glucose levels of >400 mg/dl for three consecutive days, they were separated into two equal groups. One group was not treated, while the other were treated with s.c. insulin pellets (LinShin, Toronto, ON, Canada), to obtain fed glucose levels of <200 mg/dl for at least three consecutive days. For phlorizin treatment of diabetic mice, male 8-week-old C57B1/6 mice were treated with a single intraperitoneal injection (200 μg/g body weight) of STZ (Sigma). PHZ (Sigma) was dissolved in a solution containing 10% ethanol, 15% DMSO, and 75% saline and was injected subcutaneously at a dose of 0.4 g/kg twice daily for 10 days from 8 days after the STZ injection. Control mice were injected with the same volume of vehicle.

PKCd [2] = assay: PKCd mRNA expression in liver of leptin and/or insulin treated ob/ob mice (qPCR); conditions: short-term infusion (osmotic pump 4 days; insulin pellets s.c.), FIG. 2C
Procedure: as §1
Although the difference in PKCd expression can be observed between B6 and 129 mice prior to the onset of obesity, obesity and insulin resistance also regulate PKCd. […]

PKCd [3] = assay: Western blot of liver protein expression in tunicamycin-treated mice (ER stress): PKCd; conditions: 1 μg/g i.p., 2, 4, 6 and 8 hours post-injection, FIG. 2E
Procedure: as §1
To induce an inflammation in vivo, mice were injected intraperitoneally with 100 μg LPS (Escherichia coli 55:B5; Sigma) or sterile saline as control. Mice were sacrificed 18 hours post-injection. […]

Bip = assay: Western blot of liver protein expression in tunicamycin-treated mice (ER stress): Bip; conditions: 1 μg/g i.p., 2, 4, 6 and 8 hours post-injection, FIG. 2E

Row | Molecule | differences in PKCd expression vs control (PKCd [1]) | reversal of increased expression of PKCd in liver (PKCd [2]) | PKCd protein expression in liver during onset of ER stress (PKCd [3]) | ER stress chaperone protein Bip expression in liver (Bip)
1 | CN(N=O)C(=O)N[C@H]1C(O)O[C@H](CO)[C@@H](O)[C@@H]1O (mixture of isomers) [STZ, streptozotocin] | no differences |  |  | 
2 | O=C(CCc1ccc(O)cc1)c1c(O)cc(O)cc1O[C@@H]1O[C@H](CO)[C@@H](O)[C@H](O)[C@H]1O [phlorizin] | no differences |  |  | 
3 | insulin | no differences | not reversed |  | 
4 | tunicamycin |  |  | did not observe any alterations | clearly induced
5 | B1 |  | not reversed |  | 
